Measurements from patent US20100298300A1, “TRIAZOLOPYRAZINE COMPOUNDS USEFUL FOR THE TREATMENT OF DEGENERATIVE & INFLAMMATORY DISEASES” (priority 2006, published 2010).

How the values were obtained:
[1] = tested on: MMP1 expression by activated primary synovial fibroblasts; assay: 'MMP assay': MMP1 expression by complex trigger activated synovial fibroblasts (MMP1 ELISA); assay type: cell-based; conditions: Homo sapiens, Fibroblast; Table 3; RASFs, complex trigger, 48 hrs, MMP1 ELISA
[2] = tested on: TNFα release by human PBMCs; assay: Cytokine release by LPS stimulated human PBMCs (TNFα ELISA); assay type: cell-based; conditions: PBMC, 24 h, Table 5, LPS 1 μg/mL
[3] = molecular target: T1, MAPKAPK5 (Homo sapiens, UniProt Q8IW41); assay: MAPKAP-K5 assay (FlashPlate kinase assay)
T1 sequence (Q8IW41 1-471 isoform Q8IW41-2): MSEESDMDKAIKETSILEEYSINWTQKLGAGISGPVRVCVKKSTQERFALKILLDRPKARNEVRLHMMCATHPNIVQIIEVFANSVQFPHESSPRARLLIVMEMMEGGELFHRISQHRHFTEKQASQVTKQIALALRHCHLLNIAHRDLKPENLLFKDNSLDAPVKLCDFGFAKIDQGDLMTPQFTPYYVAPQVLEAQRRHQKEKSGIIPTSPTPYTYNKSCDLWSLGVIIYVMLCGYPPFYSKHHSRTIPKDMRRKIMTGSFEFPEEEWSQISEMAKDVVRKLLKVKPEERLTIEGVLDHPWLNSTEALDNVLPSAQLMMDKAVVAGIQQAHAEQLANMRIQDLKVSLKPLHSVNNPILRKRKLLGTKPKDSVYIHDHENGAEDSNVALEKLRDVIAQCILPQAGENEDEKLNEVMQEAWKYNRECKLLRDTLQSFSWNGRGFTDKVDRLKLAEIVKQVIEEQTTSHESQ
Description: MAPKAP-K5 reactions are performed in FlashPlate format using 0.1 or 0.2 μCi 33P-ATP; 0.6 μM ATP; 1 mU MAPKAP-K5; 3 μM MAPKAP-K5 peptide substrate, incubated at room temperature for 30 minutes.
The MAPKAP-K5 kinase reaction is performed in a 384 well polypropylene plate (Matrix Technologies) and then transferred to a streptavidin-coated 384 well flashplate (Perkin-Elmer).
To wells containing 2 μL test compound or standard inhibitor, 13 μL Enzyme mix or diluent are added using a Hydra (Robbins Scientific).
Reactions are started by addition of 10 μL of [2,5×] substrate cocktail using a Multidrop (Thermo-Labsystems), to give final concentrations in the assay of:
Plates are incubated at room temperature for 30 minutes.
Reactions are terminated by the addition of 25 μL EDTA (50 mM) to each well using a Micro-fill (Biotek).
Reactions are transferred to a streptavidin-coated flashplate using a Zymark robotic system. Plates are incubated for 60 minutes at room temperature.
All wells are washed 3 times with 100 μl phosphate buffered saline using a Tecan plate washer.
Radioactivity is determined by scintillation counting of the flashplate (empty wells) on a Packard TopCount.
Enzyme Mix: • Enzyme • 50 mM Tris Hcl (pH 7.5) • 0.1 mM EGTA • 2 mM DTT • 1 mg/mL BSA
Reaction Buffer: • 50 mM Tris Hcl (pH 7.5) • 0.1 mM EGTA • 10 mM Magnesium acetate • 2 mM DTT

Structure (SMILES)	EC50 [1]	EC50 [2]	IC50 [3]
CC(C)(C)N1CCN(c2ccc(Nc3ncc(-c4ccc5c(c4)CNC5=O)n4ncnc34)cc2)CC1 [Compound 102, 5-{8-[4-(4-tert-Butyl-piperazin-1-yl)-phenylamino]-[1,2,4]triazolo[1,5-a]pyrazin-5-yl}-2,3-dihydro-isoindol-1-one]	> 1000 nM	> 1000 nM	1 to 100 nM
CC(C)(C)N1CCN(c2ccc(Nc3ncc(-c4cn[nH]c4)n4ncnc34)cc2)CC1 [Compound 103]	501 to 1000 nM	101 to 500 nM	501 to 1000 nM
c1nc2c(Nc3ccc(N4CCOCC4)cc3)ncc(-c3ccc4[nH]ncc4c3)n2n1 [Compound 104]	> 1000 nM	> 1000 nM	> 1000 nM
O=C1NCc2cc(-c3cnc(Nc4ccc(N5CCNCC5=O)cc4)c4ncnn34)ccc21 [Compound 105, 5-{8-[4-(2-Oxo-piperazin-1-yl)-phenylamino]-[1,2,4]triazolo[1,5-a]pyrazin-5-yl}-2,3-dihydro-isoindol-1-one]	> 1000 nM	> 1000 nM	1 to 100 nM
CC(C)N1CCN(c2ccc(Nc3ncc(-c4cc(F)c5c(c4)CNC5=O)n4ncnc34)cc2)CC1 [Compound 108, 7-Fluoro-5-{8-[4-(4-isopropylpiperazin-1-yl)-phenylamino]-[1,2,4]triazolo[1,5-a]pyrazin-5-yl}-2,3-dihydroisoindol-1-one]	> 1000 nM	> 1000 nM	1 to 100 nM
CNCc1cc(Nc2ncc(-c3cn[nH]c3)n3ncnc23)ccc1N1CCOCC1 [Compound 110]	> 1000 nM	> 1000 nM	> 1000 nM
O=C1NCc2cc(-c3cnc(Nc4ccc(N5CCOCC5)cc4)c4ncnn34)sc21 [Compound 113]	101 to 500 nM	> 1000 nM	501 to 1000 nM
O=C1NCc2cc(-c3cnc(NC4CCCCC4)c4ncnn34)ccc21 [Compound 115]	> 1000 nM	> 1000 nM	101 to 500 nM
O=C1NCc2cc(-c3cnc(NC4CCOCC4)c4ncnn34)ccc21 [Compound 116]	> 1000 nM	> 1000 nM	> 1000 nM
O=C1NCc2cc(-c3cnc(Nc4ccc(F)cc4)c4ncnn34)ccc21 [Compound 117]	101 to 500 nM	> 1000 nM	> 1000 nM
NC(=O)CN1CCC(c2ccc(Nc3ncc(-c4cn[nH]c4)n4ncnc34)cc2)CC1 [Compound 169, 2-(4-{4-[5-(1H-Pyrazol-4-yl)-[1,2,4]triazolo[1,5-a]pyrazin-8-ylamino]phenyl}-piperidin-1-yl)acetamide]	> 1000 nM	> 1000 nM	501 to 1000 nM
CC(C)N1CCN(c2ccc(Nc3ncc(-c4ccc5c(c4)CNC5=O)n4ncnc34)cc2C(F)(F)F)CC1 [Compound 170, 5-{8-[4-(4-Isopropylpiperazin-1-yl)-3-trifluoromethylphenylamino]-[1,2,4]triazolo[1,5-a]pyrazin-5-yl}-2,3-dihydroisoindol-1-one]	> 1000 nM	> 1000 nM	101 to 500 nM
CC(C)N1CCN(c2ccc(Nc3ncc(-c4cn[nH]c4)n4ncnc34)cc2C(F)(F)F)CC1 [Compound 171, [4-(4-Isopropylpiperazin-1-yl)-3-trifluoromethylphenyl]-[5-(1H-pyrazol-4-yl)-[1,2,4]triazolo[1,5-a]pyrazin-8-yl]amine]	> 1000 nM	501 to 1000 nM	> 1000 nM
CC(C)N1CCC(c2ccc(Nc3ncc(-c4cn[nH]c4)n4ncnc34)cn2)CC1 [Compound 172]	> 1000 nM	> 1000 nM	> 1000 nM
O=C1NCc2cc(-c3cnc(Nc4ccc(F)cc4F)c4ncnn34)ccc21 [Compound 174]	> 1000 nM	> 1000 nM	> 1000 nM
CNCc1cc(Nc2ncc(-c3ccc4c(c3)CNC4=O)n3ncnc23)ccc1N1CCOCC1 [Compound 179]	> 1000 nM	> 1000 nM	101 to 500 nM
CC(C)N1CCN(c2ccc(Nc3ncc(-c4ccc5c(c4)CNC5=O)n4ncnc34)cc2Cl)CC1 [Compound 180]	> 1000 nM	> 1000 nM	1 to 100 nM
O=C1NCc2cc(-c3cnc(NC4CCCC4)c4ncnn34)ccc21 [Compound 181]	> 1000 nM	> 1000 nM	101 to 500 nM
